Data as given in PubChem BioAssay AID2060912 (Molecular Pharmacology Branch, DTP, NCI, 2025).

Test system: HUVEC/MSC spheroids viability
Experiment: Human HUVEC/MSC cell line growth inhibition [KRAS2];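 as to viability, T/C: percent of DMSO vehicle control luminescence so 100% = untreated viability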
Details: for viability, T/C: stronger effect = lower value
In short: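 Growth/viability of tumour-free HUVEC–hMSC spheroids was measured after exposure to targeted small molecules and KRAS inhibitors, singly or in combination. Agents were diluted in half-log steps from Cmax-based top concentrations, capped at 10 microM without known Cmax.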

[1] = curve of first compound, second compound 0.0316 µM
[2] = curve of first compound, second compound 0.1 µM
[3] = curve of first compound, second compound 0.316 µM
[4] = curve of first compound, second compound 1 µM
[5] = curve of first compound, second compound 3.16 µM
[6] = curve of first compound, second compound 10 µM

In the case of `CC1COCCN1c1cc(-c2ccnn2C)c2ccnc(-c3ccn[nH]3)c2n1` (stereo unspecified) + CNCc1ccccc1-c1csc(C(C)Nc2nc(C)nc3cc(OC)c(OC)cc23)c1, the IC50 [1] is reported as 1.61 µM, the IC50 [2] is reported as 3 µM and the IC50 [3] is reported as 1.77 µM. For the same molecule, the IC50 [4] was 1.26 µM, the IC50 [5] was > 3 µM and the IC50 [6] was < 0.00949 µM. For the same molecule, the viability, T/C (second compound 0.0316 µM, first compound 0.00949 µM) was 102%, the viability, T/C (second compound 0.0316 µM, first compound 0.03 µM) was 96.5% and the viability, T/C (second compound 0.0316 µM, first compound 0.0949 µM) was 87%. It also gave a viability, T/C (second compound 0.0316 µM, first compound 0.3 µM) of 74.9%, a viability, T/C (second compound 0.0316 µM, first compound 0.949 µM) of 54.1% and a viability, T/C (second compound 0.0316 µM, first compound 3 µM) of 43.8%. For the same molecule, the viability, T/C (second compound 0.1 µM, first compound 0.00949 µM) was 88.4%, the viability, T/C (second compound 0.1 µM, first compound 0.03 µM) was 98.8% and the viability, T/C (second compound 0.1 µM, first compound 0.0949 µM) was 105%. The viability, T/C (second compound 0.1 µM, first compound 0.3 µM) was 78.2%, the viability, T/C (second compound 0.1 µM, first compound 0.949 µM) was 63.1% and the viability, T/C (second compound 0.1 µM, first compound 3 µM) was 48.3%. The viability, T/C (second compound 0.316 µM, first compound 0.00949 µM) was 97.5%, the viability, T/C (second compound 0.316 µM, first compound 0.03 µM) was 95.1% and the viability, T/C (second compound 0.316 µM, first compound 0.0949 µM) was 74%. The viability, T/C (second compound 0.316 µM, first compound 0.3 µM) was 66.7%, the viability, T/C (second compound 0.316 µM, first compound 0.949 µM) was 60.4% and the viability, T/C (second compound 0.316 µM, first compound 3 µM) was 42.8%. The viability, T/C (second compound 1 µM, first compound 0.00949 µM) was 85.8%, the viability, T/C (second compound 1 µM, first compound 0.03 µM) was 78% and the viability, T/C (second compound 1 µM, first compound 0.0949 µM) was 70.6%. The viability, T/C (second compound 1 µM, first compound 0.3 µM) was 67.1%, the viability, T/C (second compound 1 µM, first compound 0.949 µM) was 54.8% and the viability, T/C (second compound 1 µM, first compound 3 µM) was 37.7%. It also gave a viability, T/C (second compound 3.16 µM, first compound 0.00949 µM) of 94%, a viability, T/C (second compound 3.16 µM, first compound 0.03 µM) of 101% and a viability, T/C (second compound 3.16 µM, first compound 0.0949 µM) of 92.6%. For the same molecule, the viability, T/C (second compound 3.16 µM, first compound 0.3 µM) was 81.8%, the viability, T/C (second compound 3.16 µM, first compound 0.949 µM) was 80.1% and the viability, T/C (second compound 3.16 µM, first compound 3 µM) was 67.6%. For the same molecule, the viability, T/C (second compound 10 µM, first compound 0.00949 µM) was 0.34%, the viability, T/C (second compound 10 µM, first compound 0.03 µM) was 0.43% and the viability, T/C (second compound 10 µM, first compound 0.0949 µM) was 0.45%. The viability, T/C (second compound 10 µM, first compound 0.3 µM) was 0.45%, the viability, T/C (second compound 10 µM, first compound 0.949 µM) was 0.4% and the viability, T/C (second compound 10 µM, first compound 3 µM) was 0.37%.
In the case of `CC1(C)CCC(CN2CCN(c3ccc(C(=O)NS(=O)(=O)c4ccc(NCC5CCOCC5)c([N+](=O)[O-])c4)c(Oc4cnc5[nH]ccc5c4)c3)CC2)=C(c2ccc(Cl)cc2)C1`, the viability, T/C (compound 0.0316 µM) is reported as 90.6% [middle of 5 runs], the viability, T/C (compound 0.1 µM) is reported as 95.1% [middle of 5 runs] and the viability, T/C (compound 0.316 µM) is reported as 83% [middle of 5 runs]. The viability, T/C (compound 1 µM) was 90.2% [middle of 5 runs], the viability, T/C (compound 3.16 µM) was 69% [middle of 5 runs] and the viability, T/C (compound 10 µM) was 4.4% [middle of 5 runs]. The IC50 (curve of compound) was 4.56 µM [middle of 4 runs].
For `CN(C)C/C=C/C(=O)Nc1cc2c(Nc3ccc(F)c(Cl)c3)ncnc2cc1O[C@H]1CCOC1` + C=CC(=O)N1CCN(c2nc(=O)n(-c3c(C)ccnc3C(C)C)c3nc(-c4c(O)cccc4F)c(F)cc23)C(C)C1, the IC50 [1] was > 0.1 µM, the IC50 [2] was > 0.1 µM and the IC50 [3] was > 0.1 µM. The IC50 [4] was > 0.1 µM, the IC50 [5] was > 0.1 µM and the IC50 [6] was > 0.1 µM. For the same molecule, the viability, T/C (second compound 0.0316 µM, first compound 0.000316 µM) was 98.4%, the viability, T/C (second compound 0.0316 µM, first compound 0.001 µM) was 115% and the viability, T/C (second compound 0.0316 µM, first compound 0.00316 µM) was 97%. The viability, T/C (second compound 0.0316 µM, first compound 0.01 µM) was 84.3%, the viability, T/C (second compound 0.0316 µM, first compound 0.0316 µM) was 91.4% and the viability, T/C (second compound 0.0316 µM, first compound 0.1 µM) was 88.9%. It also gave a viability, T/C (second compound 0.1 µM, first compound 0.000316 µM) of 116%, a viability, T/C (second compound 0.1 µM, first compound 0.001 µM) of 107% and a viability, T/C (second compound 0.1 µM, first compound 0.00316 µM) of 85.7%. It also gave a viability, T/C (second compound 0.1 µM, first compound 0.01 µM) of 80.1%, a viability, T/C (second compound 0.1 µM, first compound 0.0316 µM) of 111% and a viability, T/C (second compound 0.1 µM, first compound 0.1 µM) of 81%. For the same molecule, the viability, T/C (second compound 0.316 µM, first compound 0.000316 µM) was 108%, the viability, T/C (second compound 0.316 µM, first compound 0.001 µM) was 109% and the viability, T/C (second compound 0.316 µM, first compound 0.00316 µM) was 87.3%. It also gave a viability, T/C (second compound 0.316 µM, first compound 0.01 µM) of 92.8%, a viability, T/C (second compound 0.316 µM, first compound 0.0316 µM) of 96.8% and a viability, T/C (second compound 0.316 µM, first compound 0.1 µM) of 100%. The viability, T/C (second compound 1 µM, first compound 0.000316 µM) was 107%, the viability, T/C (second compound 1 µM, first compound 0.001 µM) was 119% and the viability, T/C (second compound 1 µM, first compound 0.00316 µM) was 105%. It also gave a viability, T/C (second compound 1 µM, first compound 0.01 µM) of 124%, a viability, T/C (second compound 1 µM, first compound 0.0316 µM) of 112% and a viability, T/C (second compound 1 µM, first compound 0.1 µM) of 110%. The viability, T/C (second compound 3.16 µM, first compound 0.000316 µM) was 107%, the viability, T/C (second compound 3.16 µM, first compound 0.001 µM) was 129% and the viability, T/C (second compound 3.16 µM, first compound 0.00316 µM) was 114%. It also gave a viability, T/C (second compound 3.16 µM, first compound 0.01 µM) of 118%, a viability, T/C (second compound 3.16 µM, first compound 0.0316 µM) of 113% and a viability, T/C (second compound 3.16 µM, first compound 0.1 µM) of 131%. For the same molecule, the viability, T/C (second compound 10 µM, first compound 0.000316 µM) was 128%, the viability, T/C (second compound 10 µM, first compound 0.001 µM) was 122% and the viability, T/C (second compound 10 µM, first compound 0.00316 µM) was 145%. The viability, T/C (second compound 10 µM, first compound 0.01 µM) was 97.3%, the viability, T/C (second compound 10 µM, first compound 0.0316 µM) was 124% and the viability, T/C (second compound 10 µM, first compound 0.1 µM) was 106%.
